Measured values from PubChem BioAssay AID179 (DTP/NCI, 2004).
Calls of active or inactive are those of the source.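 How the source made its calls: active means compounds giving half or more protection of infected cells from virus-caused growth loss, again on retest; inactive means the rest.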

Test system: CEM cells HIV-1 protection, formazan growth assay
Assay: NCI AIDS Antiviral Assay
Conditions: for IC50: measured here: growth of uninfected CEM cells
Outline: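 Human CEM cells, uninfected and HIV-1-infected, exposed to five drug concentrations; growth measured by soluble formazan assay and scored as percent protection from infection, with protecting compounds retested.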

**Q.** How did the outcome turn out when `CNC(=S)NNc1ncnc2c1c(-c1ccc(Cl)cc1)cn2-c1ccc(C)cc1` was run?
**A.** inactive

**Q.** For `COc1cc(NS(C)(=O)=O)ccc1Nc1c2ccccc2nc2c1[nH]c1ccc(NC3OC(CO)C(O)C(O)C3O)cc12` (configuration not stated), which EC50 is on record?
**A.** > 0.12 µM

**Q.** And the IC50?
**A.** 0.0468 µM

**Q.** Which EC50 does the source give for `Cc1ccc(NCC(=O)N2CC(=O)Nc3ccccc32)c(C)c1` here?
**A.** > 17 µM

**Q.** And the IC50?
**A.** > 17 µM

**Q.** Which results are given for `CC(CCC(=O)O)C1CCC2C3C(O)CC4CC(O)CCC4(C)C3CC(O)C12C` (configuration not stated) (tested in a mixture with another compound)?
**A.** EC50: > 200 µM; IC50: > 200 µM

**Q.** How did the EC50 turn out when `c1ccc([P+](Cc2cccc(C[P+](c3ccccc3)(c3ccccc3)c3ccccc3)c2)(c2ccccc2)c2ccccc2)cc1` was run?
**A.** > 200 µM

**Q.** What about the IC50 of the same compound?
**A.** 85.1 µM

**Q.** What does the source list for `CC1=C(CCc2ccoc2)[C@@]2(C)CCCC(C)(C)C2C(=O)[C@@H]1O[C@H]1C(=O)C2C(C)(C)CCC[C@]2(C)[C@](O)(CCc2ccoc2)C1C` (some centres not stated)?
**A.** EC50: > 4.27 µM; IC50: > 4.27 µM

**Q.** Which results are given for `c1ccc(C2SCC3COCN32)cc1` (configuration not stated)?
**A.** EC50: > 240 µM; IC50: > 240 µM

**Q.** Which outcome does the source give for `O=C(O)CC1NC(/C(=C/c2ccccc2O)NC(=O)c2ccccc2)OC1=O` (configuration not stated) here?
**A.** inactive

**Q.** `O=C1OCc2cc[n+]([O-])cc21` was tested. Which EC50 did it give?
**A.** > 1660 µM

**Q.** What about the IC50 of the same compound?
**A.** > 1660 µM

**Q.** Which results are given for `Nc1ccn([C@H]2CO[C@@H](CO)[C@@H]2O)c(=O)n1`?
**A.** EC50: > 200 µM; IC50: > 200 µM

**Q.** Which outcome does the source give for `O=S1(=O)N2CN3CN(C2)CN1C3` here?
**A.** inactive

**Q.** Which outcome does the source give for `CC(C)CCC[C@@H](C)C1CCC2[C@@H]3CC=C4C[C@@H](OC(=O)CCC(=O)NCC[N+](C)(C)CCCS(=O)(=O)[O-])CC[C@]4(C)C3CC[C@@]21C` (some centres not stated) here?
**A.** inactive

**Q.** Which results are given for `NC1=Nc2ccccc2Sc2nc3ccccc3n21`?
**A.** EC50: > 200 µM; IC50: 8.71 µM

**Q.** With `CCCCCCCCCCCCCCCCCCOP(=O)(O)OCCC=C(c1cc(Cl)c(O)c(C(=O)O)c1)c1cc(Cl)c(O)c(C(=O)O)c1` as the compound, how does the EC50 read?
**A.** > 170 µM

**Q.** What about the IC50 of the same compound?
**A.** 63.1 µM

**Q.** For `CC(=O)CCNc1ccc(-c2cc(-c3ccc(N(C)C)cc3)nc3ccc4ccccc4c23)cc1`, which EC50 is on record?
**A.** > 200 µM

**Q.** What about the IC50 of the same compound?
**A.** 102 µM

**Q.** Which EC50 does the source give for `Fc1cccc(F)c1C1SCc2nc3cc(Cl)c(Cl)cc3n21` (configuration not stated) here?
**A.** 120 µM

**Q.** What about the IC50 of the same compound?
**A.** 195 µM

**Q.** Which outcome does the source give for `[O-]/N=N\c1on[n+](CCc2ccccc2)c1Cc1c(/N=N/[O-])on[n+]1CCc1ccccc1` here?
**A.** inactive

**Q.** With `COc1cc(-c2nc3sc(-c4ccc(O)c(OC)c4)nc3s2)ccc1O` as the compound, how does the EC50 read?
**A.** 83.2 µM

**Q.** And the IC50?
**A.** > 200 µM

**Q.** Which EC50 does the source give for `CCSc1nc(N)c2c(-c3ccccc3)c3c(nc2n1)CCC3` here?
**A.** > 100 µM

**Q.** And the IC50?
**A.** > 100 µM

**Q.** How did the outcome turn out when `[Cu+2].[NH-]c1cc(N)ccc1O.[NH-]c1cc(N)ccc1O` was run?
**A.** inactive

**Q.** Which results are given for `O=c1ccn(C(CO)OC(CO)CCP(=O)(O)O)c(=O)[nH]1` (configuration not stated)?
**A.** EC50: > 200 µM; IC50: > 200 µM

**Q.** What does the source list for `c1cc2c3ccsc3c3sccc3c2s1`?
**A.** EC50: > 200 µM; IC50: > 200 µM

**Q.** `O=C1c2ccccc2C(=O)c2nc(-c3ccccc3)c(-c3ccccc3)nc21` was tested. Which outcome did it give?
**A.** inactive

**Q.** What does the source list for `O=[N+]([O-])c1ccc(O)c(C=NCC2CCCN3CCCCC23)c1` (configuration not stated)?
**A.** EC50: > 200 µM; IC50: 39.8 µM

**Q.** Which results are given for `COc1ccc(-c2c(C(C)=O)c(-c3ccccc3)n(C3OC(COC(C)=O)C(OC(C)=O)C(OC(C)=O)C3OC(C)=O)c(=S)c2C#N)cc1` (configuration not stated)?
**A.** EC50: > 200 µM; IC50: 123 µM

**Q.** For `O=C(Cc1nc2ccc(C(=O)c3ccccc3)cc2[nH]c1=O)C(=O)Nc1ccc(C(F)(F)F)cc1[N+](=O)[O-]`, which EC50 is on record?
**A.** > 69.2 µM

**Q.** And the IC50?
**A.** 47.9 µM

**Q.** `CC(C)(C)C(=O)/C=C/c1ccc([N+](=O)[O-])cc1` was tested. Which outcome did it give?
**A.** inactive

**Q.** What about the IC50 of the same compound?
**A.** 10.2 µM

**Q.** Which results are given for `Cc1ccc(OCC2OC(n3cnc4c(Cl)nc(N)nc43)CC2Oc2ccc(C)cc2)cc1` (configuration not stated)?
**A.** EC50: > 200 µM; IC50: 66.1 µM

**Q.** What does the source list for `CC(C)(C)OC(=O)NCCCCC(N)C(N)=O` (configuration not stated)?
**A.** EC50: > 200 µM; IC50: > 200 µM

**Q.** Which results are given for `COc1cc(Cc2nnc(N)nc2N)cc(OC)c1OC`?
**A.** EC50: > 17.8 µM; IC50: > 17.8 µM

**Q.** With `CC(=O)Nc1ccc(S(=O)(=O)c2nnc(NC(C)=O)s2)cc1` as the compound, how does the EC50 read?
**A.** > 741 µM

**Q.** What about the IC50 of the same compound?
**A.** 331 µM

**Q.** How did the EC50 turn out when `COC(=O)[C@@H]1C=C[C@H](OC2OC(COC(C)=O)C(OC(C)=O)C(OC(C)=O)C2OC(C)=O)n2c(=O)n(-c3ccccc3)c(=O)n21` (some centres not stated) was run?
**A.** > 200 µM

**Q.** And the IC50?
**A.** 1.07 µM

**Q.** For `O=C(C/C=C/c1ccccc1)c1ccccc1`, which EC50 is on record?
**A.** > 200 µM

**Q.** What about the IC50 of the same compound?
**A.** 10 µM

**Q.** How did the outcome turn out when `COC(CNC(=O)C(C)NC(=O)/C=C/c1ccccc1)OC` (configuration not stated) was run?
**A.** inactive

**Q.** Which EC50 does the source give for `CNc1nc(OC)c2c(n1)[n+](C)cn2C` here?
**A.** > 200 µM

**Q.** What about the IC50 of the same compound?
**A.** 61.7 µM

**Q.** Which EC50 does the source give for `COc1ccc(NS(=O)CCCc2ccccc2)cc1` (configuration not stated) here?
**A.** > 200 µM

**Q.** And the IC50?
**A.** 16.6 µM

**Q.** Which results are given for `CCNC(=S)NCCc1c[nH]c2ccccc12`?
**A.** EC50: > 200 µM; IC50: 186 µM

**Q.** What does the source list for `CCOC(=O)[C@@]12C3C=CC(CC3)[C@]1(C(=O)c1ccccc1)C(=O)C(=O)N2c1ccccc1` (some centres not stated)?
**A.** EC50: > 200 µM; IC50: 110 µM

**Q.** What does the source list for `O=C(O)C12CC=CCC1(C(=O)O)CC=CC2` (configuration not stated)?
**A.** EC50: > 200 µM; IC50: > 200 µM

**Q.** What does the source list for `CCN(CC)CCNc1ccc(Cl)cc1N`?
**A.** EC50: > 200 µM; IC50: 39.8 µM

**Q.** What does the source list for `O=C1CSC(c2c[nH]c3ccccc23)N1c1cccc([N+](=O)[O-])c1` (configuration not stated)?
**A.** EC50: > 200 µM; IC50: 21.9 µM

**Q.** `CN(C)CCSC(=Nc1ccccc1)N1C=COC=C1` was tested. Which EC50 did it give?
**A.** > 871 µM

**Q.** What about the IC50 of the same compound?
**A.** 44.7 µM

**Q.** How did the EC50 turn out when `O=C(Nc1ccccc1C(=O)O)C(=Cc1ccccc1O)NC(=O)c1ccccc1` was run?
**A.** > 200 µM

**Q.** What about the IC50 of the same compound?
**A.** > 200 µM

**Q.** For `CCOC(=O)/C(C(=S)Nc1ccccc1)=C(/N)N1CCCC1`, which EC50 is on record?
**A.** > 200 µM

**Q.** And the IC50?
**A.** 53.7 µM

**Q.** For `COC1/C=C\OC2(C)Oc3c(C)c(O)c4c(O)c(c(C=Nc5ccc6ccccc6c5)c(O)c4c3C2=O)NC(=O)/C(C)=C\C=C/C(C)C(O)C(C)C(O)C(C)C(OC(C)=O)C1C` (configuration not stated), which EC50 is on record?
**A.** > 200 µM

**Q.** What about the IC50 of the same compound?
**A.** 35.5 µM
